The values that follow come from PubChem BioAssay AID449774 (The Scripps Research Institute Molecular Screening Center, 2010).

Converted amounts (≈) assume the structure as drawn.

For the test, the system named is wildtype E. coli growth inhibition, MIC. Nature of the test: wildtype E. coli growth inhibition, late-stage follow-up, counter-screen for IMP-1/VIM-2 inhibitor project, MIC, dose response (AID 449774). (Counterscreens check selectivity or assay interference.)
One may read the MIC as the least concentration at which growth counts as inhibited. In the case of `O=C(O)c1cc[c]([Hg][Cl])cc1`, the MIC is 12.5 µM.
Then `COc1cccc[c]1[Hg+]`, with 0.78 µM; and `O=C(O)c1ccc[c]([Hg+])c1`, with 3.13 µM; and `[Hg+][c]1ccccc1`, with 0.39 µM.
Turning to `CC(=O)Nc1cc[c]([Hg+])cc1`, the minimal inhibitory concentration (MIC) was 1.56 µM.
The value for `C[C@@H](O)[C@H]1C(=O)N2C(C(=O)O)=C(SCCN=CN)C[C@H]12` was 0.78 µM (≈ 0.233 µg/mL); that for `Cc1cc[c]([Hg+])cc1` was 1.56 µM.
